Laboratory results from patent US9073830B2 (Hyundai Pharm Co., Ltd., priority 2011, dated 2015).

Columns and labels:
human 11β-HSD1 = biological target: T1, human 11β-HSD1 (Homo sapiens, UniProt P28845); assay: Enzyme activity analysis on human 11β-HSD1 (HTRF cortisol, liver microsomes); format: biochemical; details: first value of cell
T1 construct: 100 ug/ml human/mouse liver microsomes; from tissue; host or cells: human liver microsomes
Procedure, shortened: (§1)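 Cortisol generated by mouse or human liver microsome 11β-HSD1 during 2 h at 37° C., measured by HTRF competition (cryptate anti-cortisol antibody, d2-cortisol, 2 h room temperature) against a cortisol standard curve. IC50 from percent inhibition versus no-compound control.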

mouse 11β-HSD1 = biological target: T2, mouse 11β-HSD1 (Mus musculus, UniProt P50172); assay: Enzyme activity analysis on mouse 11β-HSD1 (HTRF cortisol, liver microsomes); format: biochemical; details: second value of cell
T2 construct: 100 ug/ml human/mouse liver microsomes; from tissue; host or cells: mouse liver microsomes
T2 sequence (P50172 whole entry): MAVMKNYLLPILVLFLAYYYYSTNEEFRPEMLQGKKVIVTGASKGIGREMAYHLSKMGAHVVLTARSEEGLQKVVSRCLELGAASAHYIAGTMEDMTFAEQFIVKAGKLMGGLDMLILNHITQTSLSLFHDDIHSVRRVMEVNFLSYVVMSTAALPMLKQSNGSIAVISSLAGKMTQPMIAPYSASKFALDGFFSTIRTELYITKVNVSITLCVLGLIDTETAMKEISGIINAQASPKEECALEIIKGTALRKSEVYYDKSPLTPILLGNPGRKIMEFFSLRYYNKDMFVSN
Procedure, shortened: as §1

T1 sequence (P28845 whole entry): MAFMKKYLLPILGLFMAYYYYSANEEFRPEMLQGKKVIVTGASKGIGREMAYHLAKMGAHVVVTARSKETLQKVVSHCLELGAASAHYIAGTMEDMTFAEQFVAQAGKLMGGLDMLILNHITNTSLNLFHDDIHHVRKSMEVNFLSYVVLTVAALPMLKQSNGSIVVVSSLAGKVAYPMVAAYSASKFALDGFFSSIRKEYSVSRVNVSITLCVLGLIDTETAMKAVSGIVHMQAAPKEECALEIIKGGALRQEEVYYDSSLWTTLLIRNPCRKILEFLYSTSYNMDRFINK

Row | IC50 (human 11β-HSD1) [µM] | IC50 (mouse 11β-HSD1) [µM] | Structure (SMILES)
1 | 0.009 | 0.048 | NC(=O)C12CC3CC(C1)C(NC(=O)C1(NS(=O)(=O)c4ccccc4Br)CCCCC1)C(C3)C2 (stereo not drawn) [compound 178, N-4-(1-(2-bromophenylsulfonamido)cyclohexanecarboxyamido)adamantane-1-carboxyamide]
2 | 0.008 | 0.037 | NC(=O)C12CC3CC(C1)C(NC(=O)C1(NS(=O)(=O)c4ccccc4Cl)CCCCC1)C(C3)C2 (stereo not drawn) [compound 179, N-4-(1-(2-chlorophenylsulfonamido)cyclohexanecarboxyamido)adamantane-1-carboxyamide]
3 | 0.023 | 0.328 | Cc1c(Cl)cccc1S(=O)(=O)NC1(C(=O)NC2C3CC4CC2CC(C(N)=O)(C4)C3)CCCCC1 (stereo not drawn) [compound 180, N-4-(1-(3-chloro-2-methylphenylsulfonamido)cyclohexanecarboxyamido)adamantane-1-carboxyamide]
4 | 0.019 | 0.132 | NC(=O)C12CC3CC(C1)C(NC(=O)C1(NS(=O)(=O)c4ccccc4C(F)(F)F)CCCCC1)C(C3)C2 (stereo not drawn) [compound 181, N-4-(1-(2-trifluoromethylphenylsulfonamido)cyclohexanecarboxyamido)adamantane-1-carboxyamide]
5 | 0.018 | 0.006 | NC(=O)C12CC3CC(C1)C(NC(=O)C1(NS(=O)(=O)c4cccc5cccnc45)CCCCC1)C(C3)C2 (stereo not drawn) [compound 182, N-4-(1-(quinoline-8-sulfonamido)cyclohexanecarboxyamido)adamantane-1-carboxyamide]
6 | 0.017 | 0.044 | NC(=O)C12CC3CC(C1)C(NC(=O)C1(NS(=O)(=O)c4cccc(Cl)c4Cl)CCCCC1)C(C3)C2 (stereo not drawn) [compound 183, N-4-(1-(2,3-dichlorophenylsulfonamido)cyclohexanecarboxyamido)adamantane-1-carboxyamide]
7 | 0.005 | 0.104 | NC(=O)C12CC3CC(C1)C(NC(=O)C1(NS(=O)(=O)c4ccccc4[N+](=O)[O-])CCCCC1)C(C3)C2 (stereo not drawn) [compound 184, N-4-(1-(2-nitrophenylsulfonamido)cyclohexanecarboxyamido)adamantane-1-carboxyamide]
8 | 0.028 | 0.119 | NC(=O)C12CC3CC(C1)C(NC(=O)C1(NS(=O)(=O)c4ccccc4F)CCCCC1)C(C3)C2 (stereo not drawn) [compound 185, N-4-(1-(2-fluorophenylsulfonamido)cyclohexanecarboxyamido)adamantane-1-carboxyamide]
9 | 0.012 | 0.005 | NC(=O)C12CC3CC(C1)C(NC(=O)C1(NS(=O)(=O)c4c(Cl)cccc4Cl)CCCCC1)C(C3)C2 (stereo not drawn) [compound 186, N-4-(1-(2,6-dichlorophenylsulfonamido)cyclohexanecarboxyamido)adamantane-1-carboxyamide]
10 | 0.076 | > 2.5 | Cc1ccc(S(=O)(=O)NC2(C(=O)NC3C4CC5CC3CC(C(N)=O)(C5)C4)CCCCC2)cc1F (stereo not drawn) [compound 187, N-4-(1-(3-fluoro-4-methylphenylsulfonamido)cyclohexanecarboxyamido)adamantane-1-carboxyamide]
11 | 0.013 | 0.007 | CN(C(C)(C)C(=O)NC1C2CC3CC1CC(C(N)=O)(C3)C2)S(=O)(=O)c1cccc2cccnc12 (stereo not drawn) [compound 188, N-4-(2-methyl-2-(N-methylquinoline-8-sulfonamido)propanamido)adamantane-1-carboxyamide]
12 | 0.018 | > 2.5 | CN(C(C)(C)C(=O)NC1C2CC3CC1CC(C(N)=O)(C3)C2)S(=O)(=O)c1ccccc1Br (stereo not drawn) [compound 189, N-4-(2-(2-bromo-N-methylphenylsulfonamido)-2-methylpropanamido)adamantane-1-carboxyamide]
13 | 0.002 | 0.005 | CN(C(C)(C)C(=O)NC1C2CC3CC1CC(C(N)=O)(C3)C2)S(=O)(=O)c1ccccc1Cl (stereo not drawn) [compound 190, N-4-(2-(2-chloro-N-methylphenylsulfonamido)-2-methylpropanamido)adamantane-1-carboxyamide]
14 | 0.009 | 0.006 | Cc1c(Cl)cccc1S(=O)(=O)N(C)C(C)(C)C(=O)NC1C2CC3CC1CC(C(N)=O)(C3)C2 (stereo not drawn) [compound 191, N-4-(2-(2-methyl-3-chloro-N-methylphenylsulfonamido)-2-methylpropanamido)adamantane-1-carboxyamide]
15 | 0.008 | 0.002 | CN(C(C)(C)C(=O)NC1C2CC3CC1CC(C(N)=O)(C3)C2)S(=O)(=O)c1c(Cl)cccc1Cl (stereo not drawn) [compound 192, N-4-(2-(2,6-dichloro-N-methylphenylsulfonamido)-2-methylpropanamido)adamantane-1-carboxyamide]
16 | 0.007 | 0.012 | CN(C(C)(C)C(=O)NC1C2CC3CC1CC(C(N)=O)(C3)C2)S(=O)(=O)c1ccccc1C(F)(F)F (stereo not drawn) [compound 193, N-4-(2-(2-trifluoromethyl-N-methylphenylsulfonamido)-2-methylpropanamido)adamantane-1-carboxyamide]
17 | 0.012 | 0.006 | COc1cccc(F)c1S(=O)(=O)N(C)C(C)(C)C(=O)NC1C2CC3CC1CC(C(N)=O)(C3)C2 (stereo not drawn) [compound 194, N-4-(2-(2-methoxy-6-fluoro-N-methylphenylsulfonamido)-2-methylpropanamido)adamantane-1-carboxyamide]

Row | IC50 (human 11β-HSD1) [µM] | IC50 (mouse 11β-HSD1) [µM] | Structure (SMILES)
18 | 0.003 | 0.005 | Cc1ccccc1S(=O)(=O)N(C)C(C)(C)C(=O)NC1C2CC3CC1CC(C(N)=O)(C3)C2 (stereo not drawn) [compound 196]
19 | 0.004 | 0.008 | CN(C(C)(C)C(=O)NC1C2CC3CC1CC(C(N)=O)(C3)C2)S(=O)(=O)c1ccccc1[N+](=O)[O-] (stereo not drawn) [compound 197, N-4-(2-(2-nitro-N-methylphenylsulfonamido)-2-methylpropanamido)adamantane-1-carboxyamide]
20 | 0.008 | 0.003 | CN(C(C)(C)C(=O)NC1C2CC3CC1CC(C(N)=O)(C3)C2)S(=O)(=O)c1cccc(Cl)c1Cl (stereo not drawn) [compound 198]
21 | 0.004 | 0.016 | CN(C1(C(=O)NC2C3CC4CC2CC(C(N)=O)(C4)C3)CCC1)S(=O)(=O)c1ccccc1[N+](=O)[O-] (stereo not drawn) [compound 199, N-4-(1-(N-methyl-2-nitrophenylsulfonamido)cyclobutanecarboxyamido)adamantane-1-carboxyamide]
22 | 0.023 | 0.143 | Cc1c(Cl)cccc1S(=O)(=O)N(C)C(C)(C)C(=O)NC1C2CC3CC(C2)CC1C3 (stereo not drawn) [compound 200, N-(adamantane-2-yl)-2-(3-chloro-2-methyl-N-methylphenylsulfonamido)-2-methylpropanamide]
23 | 0.012 | 0.088 | CN(C(C)(C)C(=O)NC1C2CC3CC(C2)CC1C3)S(=O)(=O)c1ccccc1C(F)(F)F (stereo not drawn) [compound 201, N-(adamantane-2-yl)-2-(2-trifluoromethyl-N-methylphenylsulfonamido)-2-methylpropan amide]
24 | 0.011 | 0.208 | CN(C(C)(C)C(=O)NC1C2CC3CC1CC(O)(C3)C2)S(=O)(=O)c1ccccc1F (stereo not drawn) [compound 202, N-(5-hydroxyadamantane-2-yl)-2-(2-fluoro-N-methylphenylsulfonamido)-2-methylpropanamide]
25 | 0.01 | 0.039 | CN(C(C)(C)C(=O)NC1C2CC3CC1CC(O)(C3)C2)S(=O)(=O)c1cccc(Cl)c1Cl (stereo not drawn) [compound 203, N-(5-hydroxyadamantane-2-yl)-2-(2,3-dichloro-N-methylphenylsulfonamido)-2-methylpropanamide]
26 | 0.004 | 0.042 | Cc1c(Cl)cccc1S(=O)(=O)N(C)C(C)(C)C(=O)NC1C2CC3CC1CC(O)(C3)C2 (stereo not drawn) [compound 204, N-(5-hydroxyadamantane-2-yl)-2-(2-methyl-3-chloro-N-methylphenylsulfonamido)-2-methylpropanamide]
27 | 0.005 | 0.068 | CN(C(C)(C)C(=O)NC1C2CC3CC1CC(O)(C3)C2)S(=O)(=O)c1ccccc1[N+](=O)[O-] (stereo not drawn) [compound 205, N-(5-hydroxyadamantane-2-yl)-2-(2-nitro-N-methylphenylsulfonamido)-2-methylpropan amide]
28 | 0.005 | 0.041 | CN(C(C)(C)C(=O)NC1C2CC3CC1CC(O)(C3)C2)S(=O)(=O)c1ccccc1Br (stereo not drawn) [compound 206, N-(5-hydroxyadamantane-2-yl)-2-(2-bromo-N-methylphenylsulfonamido)-2-methylpropanamide]
29 | 0.006 | 0.107 | Cc1ccccc1S(=O)(=O)N(C)C(C)(C)C(=O)NC1C2CC3CC1CC(O)(C3)C2 (stereo not drawn) [compound 207, N-(5-hydroxyadamantane-2-yl)-2-(2-methyl-N-methylphenylsulfonamido)-2-methylpropanamide]
30 | 0.006 | 0.092 | CN(C(C)(C)C(=O)NC1C2CC3CC1CC(O)(C3)C2)S(=O)(=O)c1ccccc1C(F)(F)F (stereo not drawn) [compound 208, N-(5-hydroxyadamantane-2-yl)-2-(2-trifluoromethyl-N-methylphenylsulfonamido)-2-methylpropanamide]
31 | 0.008 | 0.182 | CCN(C(C)(C)C(=O)NC1C2CC3CC1CC(C(N)=O)(C3)C2)S(=O)(=O)c1ccccc1C (stereo not drawn) [compound 209, N-4-(2-(2-methyl-N-ethylphenylsulfonamido)-2-methylpropanamido)adamantane-1-carboxyamide]
32 | 0.006 | 1.44 | CCN(C(C)(C)C(=O)NC1C2CC3CC1CC(C(N)=O)(C3)C2)S(=O)(=O)c1ccccc1C(F)(F)F (stereo not drawn) [compound 210, N-4-(2-(2-trifluoromethyl-N-ethylphenylsulfonamido)-2-methylpropanamido)adamantane-1-carboxyamide]
33 | 0.006 | 0.079 | CCN(C(C)(C)C(=O)NC1C2CC3CC1CC(C(N)=O)(C3)C2)S(=O)(=O)c1ccccc1F (stereo not drawn) [compound 211, N-4-(2-(2-fluoro-N-ethylphenylsulfonamido)-2-methylpropanamido)adamantane-1-carboxyamide]
